Reference: paper PMC3763447 (Cell Death & Disease, 2013)
Peptide text beside a SMILES is read from it. * marks the point of attachment. Cbz = O=C(OCc1ccccc1)*

Legend:
Experiment in all cases: fluorogenic substrate
Type in all cases: biochemical
[1] = molecular target: T1, 20S proteasome β1 subunit (PGPH activity) (Homo sapiens, UniProt P28072)
T1 sequence (P28072 35-239): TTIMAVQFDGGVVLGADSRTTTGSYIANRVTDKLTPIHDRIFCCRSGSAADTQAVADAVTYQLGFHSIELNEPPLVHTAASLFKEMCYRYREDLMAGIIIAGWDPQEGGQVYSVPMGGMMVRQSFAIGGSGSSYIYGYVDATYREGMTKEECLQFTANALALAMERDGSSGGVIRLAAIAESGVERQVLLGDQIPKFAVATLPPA

[2] = molecular target: T2, 20S proteasome β5 subunit (chymotrypsin-like activity) (Homo sapiens, UniProt P28074)
T2 sequence (P28074 60-263): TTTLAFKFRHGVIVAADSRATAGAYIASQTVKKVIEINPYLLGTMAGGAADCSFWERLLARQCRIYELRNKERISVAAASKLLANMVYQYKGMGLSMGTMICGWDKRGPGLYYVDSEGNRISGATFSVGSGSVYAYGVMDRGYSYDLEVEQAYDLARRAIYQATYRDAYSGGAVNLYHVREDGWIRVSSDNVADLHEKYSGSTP

[3] = molecular target: T1, 20S proteasome β1 subunit (PGPH activity); remark: listed apart in the source

Row | Compound | fluorogenic substrate (Bz-LLE-AMC) assay with purified 20S proteasome [1] | IC50 [2] [µM] | IC50 [3] [µM]
1 | CC(C)C[C@@H](C=O)NC(=O)[C@H](CC(C)C)NC(=O)[C@H](CC(C)C)NC(=O)OCc1ccccc1 [MG132] (Cbz-Leu-Leu-Leu-aldehyde) | MG132, a known proteasome inhibitor for a positive control, showed more potent inhibition on the proteasome ChT-L and PGPH activities |  | 
2 | COc1ccc(O)c2c1Oc1cccc(c1)CCc1ccc(O)c(c1)Oc1ccc(cc1)CC2 [Mar, marchantin M] |  | 6.99 | 5.33
